The source of these data is patent publication US20060003028A1, “Stable oxidizing bromine composition, method of manufacture and use thereof for biofouling control” (priority 2004, published 2006).

The conditions of data set [1]: in water; cited from earlier work.
For data set [2], the system named is mixed cooling water bacterial culture. Kind of data set: Control experiments: bromide addition alone in phosphate buffer, plate counts. It counts as cell-based. The protocol:
In order to make certain that the observed biocidal performance enhancement is not caused by the bromide addition alone, a set of control experiments are conducted. […] The differences among all the plate count results are well within the detection limit. Therefore, the performance improvement seen in Examples 1-3 is not caused by the increased concentration of sodium bromide alone.

Structures are written as SMILES. A value given as a limit tells only on which side of the number the result lay.

For `BrBr` [elemental liquid bromine, bromine], the solubility in data set [1] was < 4 g/100 g water.
As for `[Br-].[Na+]` [NaBr, sodium bromide], the “Biocidal effect of bromide addition alone” value in data set [2] (50-150 ppm NaBr in phosphate buffer) is reported as “not biocidal”. Further, the Bacterial counts in data set [2] (50 ppm NaBr, 0 minutes) is 7.3 × 10^5 CFU/ml; in data set [2] (50 ppm NaBr, 5 minutes) it was 9.3 × 10^5 CFU/ml; in data set [2] (50 ppm NaBr, 10 minutes) it was 7.0 × 10^5 CFU/ml; in data set [2] (50 ppm NaBr, 60 minutes) it was 8.0 × 10^5 CFU/ml; in data set [2] (100 ppm NaBr, 0 minutes), 7.3 × 10^5 CFU/ml; in data set [2] (100 ppm NaBr, 5 minutes) it was 11.0 × 10^5 CFU/ml. The Bacterial counts in data set [2] (100 ppm NaBr, 10 minutes) is recorded as 8.2 × 10^5 CFU/ml; in data set [2] (100 ppm NaBr, 60 minutes), 5.4 × 10^5 CFU/ml; in data set [2] (150 ppm NaBr, 0 minutes) it was 7.3 × 10^5 CFU/ml; in data set [2] (150 ppm NaBr, 5 minutes), 8.4 × 10^5 CFU/ml; in data set [2] (150 ppm NaBr, 10 minutes), 5.2 × 10^5 CFU/ml; in data set [2] (150 ppm NaBr, 60 minutes) it was 8.3 × 10^5 CFU/ml.
